Assay results taken from US20130071848A1 (priority 2011, published 2013).

Legend:
[1] = test system: BL21(DE3)ung-151 E. coli cells; experiment: Uracil content of E. coli genomial DNA by real-time PCR with Pfu WT-pol and Pfu V93Q-pol; assay type: cell-based, Escherichia coli; conditions: early log phase (OD600=0.5), mean ± SEM, untreated 537±37
Description: Escherichia coli genomial DNA. XL1-blue, BL21(DE3)ung-151 and CJ236 E. coli strains were propagated in LB media at 37° C. and were harvested at the early log phase (OD600=0.5) or at saturated phase (overnight culture). BL21(DE3)ung-151 cells grown in the presence of 30.7 or 61.3 μM 5-fluoro-2′-deoxyuridine (5FdUR) (Sigma-Aldrich) were harvested at the early log phase. Genomial DNA was purified by MasterPure DNA Purification Kit (Epicentre) following the instructions of the manufacturer. The DNA was digested by NdeI restriction enzyme (New England Biolabs) and was separated on 1% agarose gel. […]
(§1) Synthetic and physiological samples purified from agarose gels were applied in series of either 2-fold or 10-fold dilution steps. […] Melting point of the products was measured after a final denaturation at 95° C. for 1 min by heating from 55° C. to 95° C. […] Non-template control was measured in all cases. […] Cq values were determined after the manual setting of threshold level in the early exponential phase of the PCR amplification. […] Efficiency was calculated from the following equation: E=10^(−1/M)−1, where M is the slope of the linear curve and E is the efficiency. […] At each measured CqWt value the shift between the linear curves of the reference and the putatively uracil containing samples was determined. […]

[2] = test system: ung−/− mouse embryonic fibroblast (MEF) cells; experiment: Uracil content of MEF genomial DNA by real-time PCR with Pfu WT-pol and Pfu V93Q-pol; assay type: cell-based; conditions: 100 μM 5FdUR, 4 days, mean ± SEM
Description: (§2) Mouse Embryonic Fibroblast (MEF) genomial DNA. Wild type and ung^(−/−) MEF cells (34) were a generous gift from Dr. Hilde Nilsen, University of Oslo. MEF cells were cultured in DMEM+F12 HAM Mix (Sigma) supplemented with 10% Fetal Bovine Serum (Gibco), 1% Penicillin+Streptomycin (Gibco), 0.5 mM Sodium Pyruvate (Gibco), 1% 100× Non-Essential Amino Acids (Gibco). To obtain confluent cells 10^6 cells/T-75 flask were seeded. […] Genomial DNA was purified by MasterPure DNA Purification Kit (Epicentre). DNA was digested by EcoRI restriction enzyme (New England Biolabs) and separated on 1% agarose gel. […]
as §1

[3] = test system: wild-type mouse embryonic fibroblast (MEF) cells; experiment: as above; assay type: cell-based; conditions: 100 μM 5FdUR, 4 days, mean ± SEM, practically undetectable
Description: as §2, §1

ung−/− MEF cells = experiment: Viability assay of MEF cells (AlamarBlue); assay type: cell-based, mouse; conditions: 0-1000 nM 5FdUR, 4 days, AlamarBlue fluorescence normalized to untreated
Description: (§3) Wild type and ung^(−/−) MEF cells were seeded onto 96-well plates in DMEM+F12 HAM Mix (Sigma) supplemented with 10% Fetal Bovine Serum (Gibco), 1% Penicillin+Streptomycin (Gibco), 0.5 mM Sodium Pyruvate (Gibco), 1% 100× Non-Essential Amino Acids (Gibco). 2000 cells were seeded in a well containing 100 μl medium. After 4 days 10 μl AlamarBlue (Biosource) was added, incubated for 3 hours at 37° C. and fluorescence was measured by Victor2 140 Multilabel counter at 485 nm excitation and 530 nm emission. Samples in triplicates were treated with different concentration of 5FdUR (0, 1, 10, 20, 50, 100, 250, 500, 1000 nM) and viability was assessed. Measurements were repeated three-times. Fluorescence intensity values measured from the wells was normalized to the intensity detected in samples grown in lack of 5FdUR.

wild type MEF cells = experiment: Viability assay of MEF cells (AlamarBlue); assay type: cell-based, mouse; conditions: 0-1000 nM 5FdUR, 4 days, AlamarBlue fluorescence normalized to untreated
Description: as §3

O=c1[nH]c(=O)n([C@H]2C[C@H](O)[C@@H](CO)O2)cc1F [5FdUR, 5-fluoro-2′-deoxyuridine]
uracil content of genomial DNA ([1]; 30.7 μM 5FdUR): 653±55 deoxyuridine/million dNMP
uracil content of genomial DNA ([1]; 61.3 μM 5FdUR): 770±54 deoxyuridine/million dNMP
uracil content of genomial DNA [2]: 341±87 deoxyuridine/million dNMP
uracil content of genomial DNA [3]: 40±38 deoxyuridine/million dNMP
viability (ung−/− MEF cells): significant decrease in viability
viability (wild type MEF cells): significant decrease in viability
